The values that follow come from patent US9333197B2, “Apoptosis signal-regulating kinase inhibitor” (Gilead Sciences, Inc., priority 2012, dated 2016).

For orientation: bioavailability means the share of a dose that reaches the circulation, judged against a reference dose that is usually intravenous. As a reminder, the IC50 is the point on the concentration scale where inhibition reaches its midpoint. As usually defined, the EC50 is the concentration needed to bring the measured effect to its halfway point.

Like-named read-outs stand apart in the source and are kept apart here.

The subject of one data set is Caco-2 cells. Description: Determination of CACO-2 efflux ratio / permeability. The data set is classed as in vitro ADME. Particulars: for CACO A→B: apical to basolateral; for CACO B→A: basolateral to apical. As for the experimental part:
(§1) Caco-2 cells were maintained in Dulbecco's Modification of Eagle's Medium (DMEM) with sodium pyruvate, Glutmax supplemented with 1% Pen/Strep, 1% NEAA and 10% fetal bovine serum in an incubator set at 37° C., 90% humidity and 5% CO2. Caco-2 cells between passage 62 and 72 were seeded at 2100 cells/well and were grown to confluence over at least 21-days on 24 well PET (polyethylene-terephthalate) plates (BD Biosciences). The receiver well contained HBSS buffer (10 mM HEPES, 15 mM Glucose with pH adjusted to pH 6.5) supplemented with 1% BSA pH adjusted to pH 7.4. After an initial equilibration with transport buffer, TEER values were read to test membrane integrity. Buffers containing test compounds were added and 100 μl of solution was taken at 1 and 2 hrs from the receiver compartment. Removed buffer was replaced with fresh buffer and a correction is applied to all calculations for the removed material. The experiment was carried out in replicate. All samples were immediately collected into 400 μl 100% acetonitrile acid to precipitate protein and stabilize test compounds. Cells were dosed on the apical or basolateral side to determine forward (A to B) and reverse (B to A) permeability. Permeability through a cell free trans-well is also determined as a measure of cellular permeability through the membrane and non-specific binding. To test for non-specific binding and compound instability percent recovery is determined. Samples were analyzed by LC/MS/MS.
(§2) Vr and Vd is the volume in the receiver and donor compartment in cm^3, respectively. A is the area of the cell monolayer (0.33 cm^2). D0 and D120 is the measured donor concentration at the beginning and end of the experiment, respectively. R120 is the receiver concentration at the end of the experiment (120 minutes).
(In general: Passage across Caco-2 layers is used to estimate intestinal permeability.)

Data set [1] is described as follows: Rat pharmacokinetics, 1 mg/kg IV infusion and 5.0 mg/kg PO. The class given is in vivo. Particulars: for clearance / Vd: 1 mg/kg IV infusion; for clearance: read-out: CL in rats (converted); for Vd: read-out: Vss in rats; for bioavailability: 5.0 mg/kg PO, read-out: oral bioavailability (% F) in rats. As for the experimental part:
For IV administration the test compound was formulated in 60:40 PEG 400:water with 1 equivalent HCl at 0.5 mg/mL.
For PO (oral) administration, the test compound was formulated in 5/75/10/10 ethanol/PG/solutol/water at 2.5 mg/mL.
IV and PO dosing groups each consisted of 3 male SD rats. […] The animals were fasted overnight prior to dose administration and up to 4 hr after dosing.
For the IV infusion group, the test compound was administered by intravenous infusion over 30 minutes. The rate of infusion was adjusted according to the body weight of each animal to deliver a dose of 1 mg/kg at 2 mL/kg. For the oral dosing group, the test article was administered by oral gavage at 2 mL/kg for a dose of 5.0 mg/kg.
Serial venous blood samples (approximately 0.4 mL each) were taken at specified time points after dosing from each animal. The blood samples were collected into Vacutainer™ tubes (Becton-Disckinson Corp, New Jersey, USA) containing EDTA as the anti-coagulant and were immediately placed on wet ice pending centrifugation for plasma.
An LC/MS/MS method was used to measure the concentration of test compound in plasma.
Non-compartmental pharmacokinetic analysis was performed on the plasma concentration-time data.

For another data set, the target named is CYP3A4 (Homo sapiens (Human), UniProt P08684). Description: Cytochrome P450 inhibition IC50, CYP3A4 (midazolam and testosterone). The data set is classed as in vitro ADME. Particulars: for IC50: comparative table, testosterone substrate, read-out: Cyp3A4 IC50 Testesterone (TST).
Sequence of CYP3A4 (P08684 whole entry): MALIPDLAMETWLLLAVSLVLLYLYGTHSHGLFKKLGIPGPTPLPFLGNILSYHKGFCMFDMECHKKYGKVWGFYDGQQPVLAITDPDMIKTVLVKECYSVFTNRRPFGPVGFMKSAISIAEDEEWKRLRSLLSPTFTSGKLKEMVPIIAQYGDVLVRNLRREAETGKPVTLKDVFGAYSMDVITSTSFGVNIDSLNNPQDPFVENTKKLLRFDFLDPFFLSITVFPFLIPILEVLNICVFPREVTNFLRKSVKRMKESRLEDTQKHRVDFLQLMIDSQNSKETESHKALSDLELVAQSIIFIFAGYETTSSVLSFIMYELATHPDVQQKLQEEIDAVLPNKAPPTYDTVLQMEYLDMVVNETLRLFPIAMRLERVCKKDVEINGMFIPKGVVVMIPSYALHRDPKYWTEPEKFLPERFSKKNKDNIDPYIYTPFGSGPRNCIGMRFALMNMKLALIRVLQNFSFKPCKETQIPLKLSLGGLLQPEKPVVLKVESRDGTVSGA
Data set [2] is described as follows: Determination of CACO-2 efflux ratio / permeability. The class given is in vitro ADME. To be noted: human, Caco-2, pH 7.4; read-out: Efflux ratio (B/A)/(A/B). As for the experimental part: as §1, §2
Another data set has as its target ASK1 (Rattus norvegicus, UniProt A0A8I6AEL0). Briefly: ASK1 293 cell-based assay (cellular EC50), AP-1:luciferase reporter. As for the experimental part: 2. […] Promega Steady-Glo Luciferase Assay System product insert. 3. Media Required Complete Growth Medium, “CGM” DMEM (MediaTech) 10% FBS 1% PSG 100 ug/mL HygromycinB Assay Medium, “AM” DMEM (Invitrogen) 25 mM HEPES 1 mM Sodium Pyruvate 1% PSG 4. Methods Maintenance:
Count cells and dilute to 1.5×10^5 cells per mL; add adenovirus such that there are 5 infectious forming units per cell.
Prime (20 to 30 mL) and plate cells in Greiner poly-D-Lysine coated 384-well plates at 1.2×10^4 cells per well using BioTek uFill (80 uL per well).
Immediately dose plates with 0.4 uL of compound dose series (in 100% DMSO) incubate 24 hours in humidified incubator (37° C., 5% CO2).
Process plates (per manufacturer's instructions) as follows:
Remove 60 uL of AM from assay wells
Add 20 uL per well Steady-Glo Firefly substrate, let sit for 10-20 minutes at room temperature
Acquire data on a fluorescence plate reader

For data set [3] the following is noted: 3 h, 2 μM, pH 7.4.
Method: 1 mL Teflon dialysis cells from Harvard Apparatus (Holliston, Mass., USA) were used in these experiments. […] A nominal concentration of 2 μM of compound was spiked into 1 mL of plasma or 1 mL of cell culture media. The total volume of liquid on each side of the cell was 1 mL. After 3 hours equilibration in a 37° C. water bath, samples from each side of the cell were aliquoted into the appropriate vials containing either 1 mL of human plasma (cell culture media), or buffer. Sample vials were weighed and recorded. […] Samples were vortexed and centrifuged for 15 minutes at 12000 G. 200 μL of the supernatant was removed and placed into a new 96 well plate. An additional 200 μL of 1:1 ACN:water was added. The plate was then vortexed and subjected to LC-MS analysis. The percent unbound for an analyte in plasma was calculated using the following equations % Unbound=100(Cf/Ct) where Cf and Ct are the post-dialysis buffer and plasma concentrations, respectively.
The mark [4] stands for this setting: Sprague-Dawley, rat, plasma, male SD rats.

Sequence of ASK1 (A0A8I6AEL0 1-1381): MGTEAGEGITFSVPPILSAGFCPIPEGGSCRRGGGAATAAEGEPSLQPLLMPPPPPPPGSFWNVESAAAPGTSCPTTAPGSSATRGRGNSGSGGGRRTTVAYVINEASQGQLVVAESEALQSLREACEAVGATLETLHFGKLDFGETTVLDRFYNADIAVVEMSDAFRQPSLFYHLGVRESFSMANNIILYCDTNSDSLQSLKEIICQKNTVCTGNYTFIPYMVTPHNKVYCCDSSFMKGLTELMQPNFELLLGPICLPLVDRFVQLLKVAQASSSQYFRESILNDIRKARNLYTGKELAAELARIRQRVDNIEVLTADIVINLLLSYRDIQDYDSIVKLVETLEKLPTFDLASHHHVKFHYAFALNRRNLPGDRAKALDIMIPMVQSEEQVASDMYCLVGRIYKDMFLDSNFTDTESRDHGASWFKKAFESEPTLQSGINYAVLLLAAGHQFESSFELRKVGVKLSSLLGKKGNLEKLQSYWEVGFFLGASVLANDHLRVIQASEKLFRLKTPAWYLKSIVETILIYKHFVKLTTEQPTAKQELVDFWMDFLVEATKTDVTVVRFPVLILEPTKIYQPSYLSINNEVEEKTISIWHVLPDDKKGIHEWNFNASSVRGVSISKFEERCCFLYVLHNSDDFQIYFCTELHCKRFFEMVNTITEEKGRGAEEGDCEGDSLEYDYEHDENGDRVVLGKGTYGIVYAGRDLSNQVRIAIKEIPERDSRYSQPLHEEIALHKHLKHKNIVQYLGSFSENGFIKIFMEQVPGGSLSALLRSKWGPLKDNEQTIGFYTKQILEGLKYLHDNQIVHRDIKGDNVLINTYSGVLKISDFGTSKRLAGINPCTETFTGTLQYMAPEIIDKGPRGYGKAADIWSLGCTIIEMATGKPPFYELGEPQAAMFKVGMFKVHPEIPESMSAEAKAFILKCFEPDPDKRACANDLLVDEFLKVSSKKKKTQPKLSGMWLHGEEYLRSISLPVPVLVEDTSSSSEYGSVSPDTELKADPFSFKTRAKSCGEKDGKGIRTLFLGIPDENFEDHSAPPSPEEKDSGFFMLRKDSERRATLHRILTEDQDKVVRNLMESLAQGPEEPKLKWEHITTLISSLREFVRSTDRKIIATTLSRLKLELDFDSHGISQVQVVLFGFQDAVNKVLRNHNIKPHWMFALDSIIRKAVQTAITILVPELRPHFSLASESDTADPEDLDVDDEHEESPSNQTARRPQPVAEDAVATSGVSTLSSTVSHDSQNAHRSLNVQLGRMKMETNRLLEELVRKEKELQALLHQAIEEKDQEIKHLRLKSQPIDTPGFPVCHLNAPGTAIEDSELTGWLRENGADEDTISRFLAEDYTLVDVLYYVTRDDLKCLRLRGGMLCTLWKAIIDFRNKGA

On to `CC(C)n1cnnc1-c1cccc(NC(=O)c2cccc(-n3cnc(C4CC4)c3)c2)n1` [Compound A], for which, in the data set with Caco-2 cells, the “CACO A→B” value was 3.1 and the “CACO B→A” value was found to be 18.5. Moreover, in data set [1] (setting [4]), the clearance was 5 mL/min/kg, the Vd was determined as 0.17 L/kg and the bioavailability came out at 11%. This compound also returned a t1/2 in rats in data set [1] (male SD rats) of 0.59 h. In data set [1] (rat, in vivo), the “number of times compound of formula (I) shows an improvement over the indicated compound: % F in rats” value was found to be 6.8 X, the “number of times compound of formula (I) shows an improvement over the indicated compound: CL in rats” value is 2.7 X, the “number of times compound of formula (I) shows an improvement over the indicated compound: Vss in rats” value came out at 3.2 X and the “number of times compound of formula (I) shows an improvement over the indicated compound: t½ in rats” value amounted to 8.6 X. Further, on CYP3A4, the “number of times compound of formula (I) shows an improvement over the indicated compound: Cyp3A4 IC50 (TST)” value stood at 10 X and the half-inhibitory concentration (IC50) stood at 1100 nM.
Consider `Cc1ccc(C(=O)Nc2cccc(-c3nncn3C3CC3)n2)cc1-n1cnc(C2CC2)c1` [Compound B], for which the efflux ratio at 120 min in data set [2] was 15.4. In addition, in the data set with Caco-2 cells, the “CACO A→B” value is reported as 0.26 and the “CACO B→A” value worked out at 4. Also, in data set [1] (setting [4]), the clearance was 6.5 mL/min/kg, the Vd was 0.54 L/kg and the bioavailability came to 50%. The half-life in data set [1] (Sprague-Dawley, rat, plasma, male SD rats, read-out: t1/2 in rats (converted)) is 1.3 h. In data set [1] (rat, in vivo), the “number of times compound of formula (I) shows an improvement over the indicated compound: % F in rats” value worked out at 1.5 X, the “number of times compound of formula (I) shows an improvement over the indicated compound: CL in rats” value came out at 3.6 X and the “number of times compound of formula (I) shows an improvement over the indicated compound: t½ in rats” value is given as 3.9 X. Further, at ASK1, the “number of times compound of formula (I) shows an improvement over the indicated compound: EC50” value was determined as 9 X and the “number of times compound of formula (I) shows an improvement over the indicated compound: PBadj EC50” value was 33 X. This compound also had a half-maximal effective concentration (EC50) on ASK1 (293/AP1-Luc cells infected with adenovirus expressing kinase active ASK1, 24 hours) of 18 nM. Also, on ASK1 (protein binding adjusted EC50, read-out: PBadj EC50), the EC50 was found to be 563 nM. For the same compound, on CYP3A4, the “number of times compound of formula (I) shows an improvement over the indicated compound: Cyp3A4 IC50 (TST)” value was 2.8 X, the “number of times compound of formula (I) shows an improvement over the indicated compound: Cyp3A4 IC50/PBAdj.EC50” value is 92 X and the half-maximal inhibitory concentration (IC50) was determined as 4000 nM. Further, the “Cyp3A4 IC50/PBAdj.EC50” value on CYP3A4 (ratio of Cyp3A4 inhibition and protein binding adjusted EC50) came to 7.
As to `Cc1cc(F)c(C(=O)Nc2cccc(-c3nncn3C(C)C)n2)cc1-n1cnc(C2CC2)c1` [compound of formula (I), 5-(4-cyclopropyl-1H-imidazol-1-yl)-N-(6-(4-isopropyl-4H-1,2,4-triazol-3-yl)pyridin-2-yl)-2-fluoro-4-methylbenzamide], in data set [1] (rat, plasma, male SD rats), the Vd was 0.55 L/kg and the bioavailability came out at 75%. The “percent unbound measured in human plasma” value in data set [3] turned out to be 11.94%.
